Reference: patent US9040580B2, “Method for prevention or treatment of degenerative neurologial brain disorders” (B[…]., LTD., priority 2010, dated 2015)

Columns and labels:
[1] = tested on: Parkinson's disease model (6-OHDA) C57BL/6 mouse; test: Rotarod test in Parkinson's disease model; assay type: in vivo; conditions: FIG. 7
Procedure: In order to identify whether methylparaben (MP) can improve movement dysfunction of the Parkinson's disease model, a rotarod test was performed and the test results were evaluated on day 14 after the surgery of Parkinson's disease. The rotarod test refers to a test of measuring a residence time when a mouse was riding on a rotarod without falling off. A rotation speed of the rotarod was set to 10 rpm and the rotarod test was performed over 10 minutes after an adaptation time of 5 minutes. A riding time on the rotarod was repeatedly measured three times and a mean value was calculated, then, a final value was represented in the form of the mean value±mean error (n=6).

[2] = established by the World Heath Organization (WHO); cited from earlier work
[3] = Hydroxyl radical removal ability test (Fenton reaction, DMPO spin trap, ESR); assay type: biochemical
Procedure: In order to identify active oxygen removal ability of methylparaben (MP), Fenton reaction [H2O2+FeSO4] was performed to derive hydroxyl radicals. The derived hydroxyl radicals were entrapped by a nitrone spin trap (DMPO) and the entrapped DMPO-OH addition product was measured by an electron spin resonance (ESR) spectrometer. ESR spectrum was measured by reacting a reaction reagent [phosphate buffer solution (pH 7.4); 4.5 M DMPO 10 μl, 0.6 mM FeSO4 75 μl, 2.8 M H2O2 75 μl], methylparaben and vitamin C (VitC), then, using an ESR spectrometer (JES-FA, JEOL, Japan), and the measured results are shown in FIG. 2. In this regard, the ESR spectrometer carried out analysis using some parameters [magnetic field 340 mT, power 1.00 mW, frequency 9.19 GHz, amplitude modulation 0.2 mT, gain 200, scanning time 2 minutes, scanning width 10 mT, time constant 0.03 seconds, and temperature 20° C.].

SH-SY5Y cells [4] = test: Cell protective activity against excitatory brain neurotransmitter (glutamate), WST-1; assay type: cell-based, human; conditions: for apoptosis caused by excitatory brain neurotransmitter: 4 h pre-culture, then 2 mM glutamate 24 h, FIG. 5
Procedure: (§1) In order to identify whether methylparaben (MP) in cultured cells has cell protective effects against active oxygen, excitatory brain neurotransmitter, and α-synuclein, a cell protective activity test was performed. These materials, that is, the active oxygen, excitatory brain neurotransmitter, and α-synuclein has been indicated as a cause of extensive damage of nerve cells with respect to Parkinson's disease and other degenerative cerebral disorders.
(§2) Each well of a 96-well plate was provided with SH-SY5Y cells (5×10^3 cells; 10% FBS added DMEM medium) derived from human nerve cancer and cultured at 37° C. for 24 hours. After this, 1, 10 and 100 ng/ml of methylparaben (MP), 50 μM Vitamin E (Vit E) or 10 μM MK-801 was added and further cultured for 4 hours. Alternatively, as a control group, a culture solution without the addition of a drug was prepared. After culturing for 4 hours, 300 mM hydrogen peroxide solution (H2O2) generating active oxygen, 2 mM glutamate as an excitatory brain neurotransmitter, and 2 μM α-synuclein were further added and cultured for 24 hours. After culturing, the cultured solution was washed using phosphate buffered saline (PBS). 100 μl cultured solution provided with a 10% cell proliferation reagent (WST-1) was poured into an incubator at 37° C. and reacted for 1 hour under […], and then, absorbance was measured at 450 nm.

[5] = tested on: Parkinson's disease model (6-OHDA) C57BL/6 mouse; test: Observation of rotary movement (apomorphine-induced) in Parkinson's disease model; conditions: FIG. 8
[6] = tested on: Parkinson's disease model (6-OHDA) C57BL/6 mouse; test: Passive avoidance test in Parkinson's disease model; assay type: in vivo; conditions: FIG. 10
Procedure: As a test device, a shuttle box having a size of 50×15×40 cm in width×length×height and being provided with an electrically conductive grid was used. The box was separated into two rooms, each having a size of 25×15 cm, by a connecting guillotine door (10×10 cm). Each room was illuminated using a 20 W light bulb. Noise was 60 dB or less and the test was performed in a room with very low illumination.
A mouse was placed in one room (A) of the two rooms separated by the door and the door was opened while turning on a light at 1500 lux. By doing this, the mouse looked around the room and entered the other room (B) without illumination. At this time, the door was operated to be automatically closed. By measuring a time taken from the opening of the door while turning on the light, to the closing of the door, a latency time was determined. The mouse may pass from room A to room B if the above process is repeated. If the mouse crossed from room A into room B within 20 seconds by repeating the above described process, a training process was deemed to be completed. […]
The mouse may develop a memory of a relation between the dark room and the foot-shock. […] After 1 day, a time taken from placing the above mouse in room A just before the mouse crossed into room B when a light turned on, was measured. […]

SH-SY5Y cells [7] = test: Cell protective activity against α-synuclein, WST-1; assay type: cell-based, human; conditions: for apoptosis caused by α-synuclein: 4 h pre-culture, then 2 μM α-synuclein 24 h, FIG. 6
Procedure: as §1, §2

SH-SY5Y cells [8] = test: Cell protective activity against active oxygen (hydrogen peroxide), WST-1; assay type: cell-based, human; conditions: for apoptosis caused by active oxygen: 4 h pre-culture, then 300 mM H2O2 24 h, FIG. 4
Procedure: as §1, §2

[9] = tested on: Parkinson's disease model (6-OHDA) C57BL/6 mouse; test: Y-shaped maze test in Parkinson's disease model; assay type: in vivo; conditions: FIG. 9
Procedure: An Y-shaped maze measurement device has three extending arms to form an alphabet ‘Y’ shape wherein each arm has a length of 35 cm, height of 9 cm, and width of 5 cm, and all arms are formed at the same angle. After positioning a test animal to face an end of one of the arms of the Y-shaped maze, the animal was allowed to freely go around the arms for 8 minutes. Motions of the animal were recorded and, when the animal with hind legs moved inside the arm, the animal was deemed to pass the arm (‘arm entry’). Movement of the animal was represented by the number of crossings (‘alternation’) and one alternation is defined to be when the animal continuously passes three arms. A quantity of spontaneous crossing movement is a percentage ratio of a practical alternation and a maximum possible alternation (that is, a total alternation −2).

[10] = 100 μg/kg i.p. everyday for 2 weeks
[11] = 200 μg/kg i.p. everyday for 2 weeks

In the case of `COC(=O)c1ccc(O)cc1` [methylparaben], the “movement ability (riding time on rotarod)” value [1, 10] is listed as “significantly improving”, the “movement ability (riding time on rotarod)” value [1, 11] is listed as “significantly improving” and the daily proper intake [2] is listed as 10 mg/kg. For the same molecule, the “amount of active oxygen (ESR, DMPO-OH)” value ([3]; adding methylparaben, Fenton reaction, pH 7.4, FIG. 2) was “reduced an amount of active oxygen”, the “active oxygen inhibitory ability compared with VitC” value ([3]; methylparaben 100 μg/ml) was “substantially similar to that of VitC” and the “active oxygen inhibitory ability” value ([3]; methylparaben added, in relation to concentration, FIG. 3, n=4) was “active oxygen inhibitory ability was increased”. For the same molecule, the “apoptosis caused by excitatory brain neurotransmitter” value (SH-SY5Y cells [4]; 10 ng/ml) was “significantly suppressed”, the “apoptosis caused by excitatory brain neurotransmitter” value (SH-SY5Y cells [4]; 100 ng/ml) was “significantly suppressed” and the “cell protective effect compared with positive control groups” value (SH-SY5Y cells [4]; 10 and 100 ng/ml, glutamate) was “substantially similar to 50 μM VitE or 10 μM MK-801”. The “rotary movement dysfunction (number of revolutions after apomorphine)” value [5, 10] was “significantly improving”, the “rotary movement dysfunction (number of revolutions after apomorphine)” value [5, 11] was “significantly improving” and the “memory (latency time, passive avoidance)” value [6, 10] was “significantly improving”. The “memory (latency time, passive avoidance)” value [6, 11] was “significantly improving”, the “apoptosis caused by α-synuclein” value (SH-SY5Y cells [7]; 10 ng/ml) was “significantly suppressed” and the “apoptosis caused by α-synuclein” value (SH-SY5Y cells [7]; 100 ng/ml) was “significantly suppressed”. For the same molecule, the “cell protective effect compared with positive control groups” value (SH-SY5Y cells [7]; 10 and 100 ng/ml, α-synuclein) was “substantially similar to 50 μM VitE or 10 μM MK-801”, the “apoptosis caused by active oxygen” value (SH-SY5Y cells [8]; 10 ng/ml) was “significantly suppressed” and the “apoptosis caused by active oxygen” value (SH-SY5Y cells [8]; 100 ng/ml) was “significantly suppressed”. For the same molecule, the “cell protective effect compared with positive control groups” value (SH-SY5Y cells [8]; 10 and 100 ng/ml, H2O2) was “substantially similar to 50 μM VitE or 10 μM MK-801”, the “memory (spontaneous alternation, Y-shaped maze)” value [9, 10] was “significantly improving” and the “memory (spontaneous alternation, Y-shaped maze)” value [9, 11] was “significantly improving”.

In the case of `CCOC(=O)c1ccc(O)cc1` [ethylparaben], the daily proper intake [2] is listed as 10 mg/kg.
